Data published in ChEMBL document CHEMBL1146714, “Peptidyl hydroxamic acids as methionine aminopeptidase inhibitors” (Bioorg Med Chem Lett, 2004).

system: not listed separately; assay: Inhibitory activity against methionine Escherichia coli aminopeptidase (MetAP)

Row | SMILES | Ki [µM]
1 | CSCC[C@H](N)C(=O)N(O)CC(=O)O | 170
2 | CSCC[C@H](N)C(=O)N(O)CC(=O)NCCc1ccccn1 | 2.5
3 | CCCC[C@H](N)C(=O)N(O)CCC(=O)NCCc1ccccn1 | 48
4 | CCCC[C@H](N)C(=O)N(O)CC(=O)NCCc1ccccn1 | 59
5 | C[C@@H](N)C(=O)N(O)CC(=O)O | 8.8

biological target: Methionine aminopeptidase 2 (Homo sapiens, UniProt P50579); assay: Inhibitory activity against Methionine aminopeptidase 2
Sequence (P50579 whole entry): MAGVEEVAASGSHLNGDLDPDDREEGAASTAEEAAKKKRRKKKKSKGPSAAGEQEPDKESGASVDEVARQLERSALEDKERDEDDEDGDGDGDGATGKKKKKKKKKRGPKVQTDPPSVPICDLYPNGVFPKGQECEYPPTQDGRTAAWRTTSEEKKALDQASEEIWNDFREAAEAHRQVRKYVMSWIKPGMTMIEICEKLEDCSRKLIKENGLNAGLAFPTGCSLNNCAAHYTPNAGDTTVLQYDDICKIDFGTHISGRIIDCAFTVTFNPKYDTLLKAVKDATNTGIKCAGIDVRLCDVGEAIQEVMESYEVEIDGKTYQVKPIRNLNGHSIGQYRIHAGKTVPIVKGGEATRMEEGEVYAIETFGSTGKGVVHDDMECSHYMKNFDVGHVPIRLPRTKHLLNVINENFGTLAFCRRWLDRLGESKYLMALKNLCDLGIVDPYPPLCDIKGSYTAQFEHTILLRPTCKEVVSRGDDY

Row | SMILES | Ki [µM]
6 | CSCC[C@H](N)C(=O)N(O)CC(=O)O | 1300
7 | CCCC[C@H](N)C(=O)N(O)CC(=O)NCCc1ccccn1 | 164
8 | C[C@@H](N)C(=O)N(O)CC(=O)O | 600
